Assay: method code SF-AS, from DOI: 10.1016/j.jct.2013.01.022
Settings: pH 7.4

SMILES | logD
CCc1ccc(NC2=NCCC3(CCCCC3)S2)cc1 | 2.22
Cc1ccc(NC2=NCCC3(CCCCC3)S2)cc1Cl | 2.54
c1ccc(NC2=NCCC3(CCCCC3)S2)cc1 | 1.27
Clc1ccc(NC2=NCCC3(CCCCC3)S2)cc1 | 2.4

Next, values leading:

logD | SMILES
2.45 | FC(F)(F)c1ccc(NC2=NCCC3(CCCCC3)S2)cc1
1.55 | O=C(NC1=NCCC2(CCCCC2)S1)c1ccccc1
1.89 | CC(=O)c1ccc(NC2=NCCC3(CCCCC3)S2)cc1
1.75 | CC(C)c1ccc(NC2=NCCC3(CCCCC3)S2)cc1
2.43 | Brc1ccc(NC2=NCCC3(CCCCC3)S2)cc1
1.88 | Cc1ccc(NC2=NCCC3(CCCCC3)S2)cc1

From the SangsterLogP compilation
